Reference: patent publication US20240400560A1, “BICYCLIC HETEROCYCLIC DERIVATIVE HAVING VIRAL GROWTH INHIBITORY ACTIVITY AND PHARMACEUTICAL COMPOSITION CONTAINING SAME” (Shionogi & Co., Ltd., priority 2021, published 2024)
Where two headings read alike, the source gives them in different places.

Assays:
SARS-CoV-2 3CL protease = SARS-CoV-2 3CL protease (Severe acute respiratory syndrome coronavirus 2, UniProt P0DTD1); assay: Inhibitory activity test against SARS-CoV-2 3CL proteases; type: biochemical
SARS-CoV-2 = assay: Inhibitory activity of cytopathic effect (CPE) in HEK293T/ACE2-TMPRSS2 cells; type: cell-based; details: Severe acute respiratory syndrome coronavirus 2, HEK-293T, 72 h
[1] = read-out: IC50 (50% SARS-CoV-2 3CL protease inhibitory concentration)
[2] = HEK293T/ACE2-TMPRSS2 cells, cultured 3 days, CellTiter-Glo 2.0 luminescence, read-out: EC50 (50% SARS-CoV-2 infected cell death inhibitory concentration)
[3] = IC50 (50% SARS-CoV-2 3CL protease inhibitory concentration)
[4] = 50% SARS-CoV-2 infected cell death inhibitory concentration, HEK293T/ACE2-TMPRSS2 cells, CellTiter-Glo 2.0 after 3 days culture, read-out: EC50

| SMILES | IC50 (SARS-CoV-2 3CL protease; [1]) [nM] | EC50 (SARS-CoV-2; [2]) [nM] | IC50 (SARS-CoV-2 3CL protease; [3]) [nM] | EC50 (SARS-CoV-2) [nM] | EC50 (SARS-CoV-2; [4]) [nM] |
| --- | --- | --- | --- | --- | --- |
| COc1nc(N2CCC(O)(CF)C2)cc2c1c(=O)n(-c1cncc(Cl)c1)c(=O)n2-c1ccc(F)c(Cl)c1 (centres unmarked) [Compound I-1004] | < 100 | < 100 | – | – | – |
| N#Cc1ccc(Cl)c(-c2cc3c(c(=O)n(-c4cnc5ccccn45)c(=O)n3Cc3cc(F)c(F)c(F)c3)c3nccnc23)c1 [Compound I-0844] | < 100 | < 100 | – | – | – |
| [2H]C([2H])([2H])O[C@@H]1CCN(c2cc3c(c(OC)n2)c(=O)n(-c2cncc(OC(F)F)c2)c(=O)n3-c2ccc(F)c(Cl)c2)C1 [Compound I-0971] | < 100 | < 100 | – | – | – |
| COc1cc(N2[C@@H]3CC[C@H]2CNC3)cc2c1c(=O)n(-c1cnc3cc(F)ccn13)c(=O)n2Cc1cc(Cl)c(F)cc1C [Compound I-0650] | – | – | 1.2 | 27.3 | – |
| COc1cc(-c2cc3cc[nH]c3cc2Cl)cc2c1c(=O)n(Cc1ncn(C)n1)c(=O)n2Cc1cc(F)c(F)c(F)c1 [Compound I-0901] | < 100 | < 100 | – | – | – |
| COc1nc2c(=O)n(Cc3ncn(C)n3)c(=O)n(Cc3ccc(F)c(Cl)c3)c2cc1-c1cc(C#N)ccc1Cl [Compound I-0726] | < 100 | < 100 | – | – | – |
| COc1nc(N2CC[C@@H](O)C2)cc2c1c(=O)n(-c1cnc3cc(F)c(Cl)cn13)c(=O)n2-c1ccc(F)c(Cl)c1 [Compound I-0952] | < 100 | < 100 | – | – | – |
| COc1nc(N2C[C@@H]3C[C@H]2CO3)cc2c1c(=O)n(-c1cncc(F)c1)c(=O)n2-c1ccc(F)c(F)c1 [Compound I-1030] | < 100 | < 100 | – | – | – |
| COc1nc2c(=O)n(Cc3ncn(C)n3)c(=O)n(Cc3cc(F)c(F)c(Cl)c3)c2cc1-c1nc(C(=O)NC2COC2)ccc1Cl [Compound I-0885] | < 100 | < 100 | – | – | – |
| CCC(=O)c1ccc(Cl)c(-c2cc(OC)c3c(=O)n(Cc4ncn(C)n4)c(=O)n(Cc4cc(F)c(F)c(F)c4)c3c2)c1 [Compound I-0657] | 20 | – | – | – | 76.1 |
| COc1nc(NC2CCCC2)cc2c1c(=O)n(-c1cnc3cc(F)ccn13)c(=O)n2-c1ccc(F)c(Cl)c1 [Compound I-1046] | – | < 100 | < 100 | – | – |
| CCc1cc2c(c(OC)n1)c(=O)n(-c1cnc3cc(F)ccn13)c(=O)n2-c1ccc(F)c(Cl)c1 [Compound I-1032] | < 100 | < 100 | – | – | – |
| CNC(=O)c1ccc(Cl)c(-c2cc3c(nc2OC)c(=O)n(Cc2ncn(C)n2)c(=O)n3Cc2cc(F)c(F)c(Cl)c2)n1 [Compound I-0878] | 3.9 | – | – | – | 13.7 |
| O=c1c2c(=O)n(-c3cnc4cc(F)ccn34)c(=O)n(-c3ccc(F)c(Cl)c3)c2cc2n1C[C@@H]1CCCCN21 [Compound I-0988] | < 100 | 100 to 1000 | – | – | – |
| COc1nc(N2CC[C@@H](O)C2)cc2c1c(=O)n(-c1cncc(C(F)F)c1)c(=O)n2-c1ccc(F)c(Cl)c1 [Compound I-0964] | < 100 | < 100 | – | – | – |
| COc1nc(N2CC[C@@H](C#N)C2)cc2c1c(=O)n(-c1cnc3cc(F)ccn13)c(=O)n2-c1ccc(F)c(F)c1 [Compound I-0959] | < 100 | < 100 | – | – | – |
| COc1nc(NC2CCC2)cc2c1c(=O)n(-c1cnc3cc(F)ccn13)c(=O)n2-c1ccc(F)c(Cl)c1 [Compound I-1053] | < 100 | < 100 | – | – | – |
| COc1nc2c(=O)n(Cc3ncn(C)n3)c(=O)n(Cc3cc(Cl)c(F)cc3C)c2cc1-c1nc(C(C)(C)O)ccc1Cl [Compound I-0882] | < 100 | < 100 | – | – | – |
| COC[C@@H]1CCN(c2cc3c(c(OC)n2)c(=O)n(-c2cncc(Cl)c2)c(=O)n3-c2ccc(F)c(Cl)c2)C1 [Compound I-1008] | < 100 | < 100 | – | – | – |
| [2H]C([2H])([2H])n1cnc(Cn2c(=O)c3c(OC)nc(N4CC[C@@H](F)C4)cc3n(Cc3cc(F)c(F)c(F)c3)c2=O)n1 [Compound I-0917] | – | < 100 | < 100 | – | – |
| COc1cc(-c2cc(C3(O)CC3)ccc2Cl)cc2c1c(=O)n(Cc1ncn(C)n1)c(=O)n2Cc1cc(F)c(F)c(F)c1 [Compound I-0546] | < 100 | < 100 | – | – | – |
| COc1nc(N2CCOCC2)cc2c1c(=O)n(-c1cnc3cc(F)ccn13)c(=O)n2-c1ccc(F)c(Cl)c1 [Compound I-0743] | 22 | – | – | – | 19.3 |
| Cn1c(-c2cc(C#N)ccc2Cl)cc2c(c1=O)c(=O)n(-c1cnc3ccc(F)cn13)c(=O)n2Cc1cc(F)c(F)c(F)c1 [Compound I-0681] | < 100 | < 100 | – | – | – |
| COc1nc2cc(-c3cc(OC)c4c(=O)n(Cc5ncn(C)n5)c(=O)n(Cc5cc(F)c(F)c(Cl)c5)c4c3)c(Cl)cc2[nH]1 [Compound I-0858] | 2.4 | – | – | – | 44.1 |
| Cn1cnc(Cn2c(=O)c3c4nccnc4c(N4CC(F)(F)C(F)(F)C4)cc3n(Cc3cc(F)c(F)c(Cl)c3)c2=O)n1 [Compound I-0570] | 26 | – | – | – | 24.7 |
